Measurements from US11752125B2, “Anti-neuroinflammatory and protective compounds in Achillea fragrantissima” (THE STATE OF ISRAEL MINISTRY OF AGRICULTURE & RURAL …, priority 2013, dated 2023).

What was measured:
MEK1 = assay: H2O2-induced MEK1 phosphorylation in astrocytes (ELISA); format: cell-based, rat; conditions: H2O2 175 μM 40 min; for effect on H2O2-induced phosphorylation of MEK1: astrocytes preincubated 2 h
Experimental: Astrocytes were treated with TTF 2 h before the addition of H2O2. Cells were lysed 40 minutes after the addition of H2O2 in lysis buffer supplied by PathScan sandwich ELISA kit (Cell Signaling TECHNOLOGY) according to the manufacturer's protocol. Protein concentrations in cell lysates were determined by Bradford reagent (Bio-Rad, Hercules, Calif.), and equal amounts of proteins were subjected to ELISA. To measure the amount of total and phosphoSAPK/JNK in cell lysates of astrocytes, ELISA was performed according to the manufacturer's protocol using the PathScan total SAPK/JNK sandwich ELISA kit (Cell Signaling TECHNOLOGY) and the PathScan phospho-SAPK/JNK (Thr183/Tyr185) sandwich ELISA kit (Cell Signaling TECHNOLOGY), respectively. To measure the amount of total and phospho-ERK 1/2 (i.e. phospho-p44/42 MAPK) in cell lysates of astrocytes, ELISA was performed according to the manufacturer's protocol using the PathScan total p44/42 MAPK (ERK 1/2) sandwich ELISA kit (Cell Signaling TECHNOLOGY) and the PathScan phospho-p44/42 MAPK (Thr202/Tyr204) sandwich ELISA kit (Cell Signaling TECHNOLOGY), respectively. To measure the amount of total and phospho-MEK1 in cell lysates of astrocytes, ELISA was performed according to the manufacturer's protocol using the PathScan total MEK1 sandwich ELISA kit (Cell Signaling TECHNOLOGY) and the PathScan phospho-MEK1 (Ser217/221) sandwich ELISA kit (Cell Signaling TECHNOLOGY), respectively. […] The optical density was determined at 450 nm using a microplate reader.
1. […] Determine the optical density at 450 nm using a microplate reader.
Astrocytes were treated with 175 μM of H2O2 for 40 min following preincubation with TTF for 2 h. The levels of phosphorylated and total SAPK/JNK (FIG. 3A), MEK1 (FIG. 3B) and ERK 1/2 (FIG. 3C) were measured by ELISA. […]

[1] = DPPH free radical scavenging assay; conditions: cell free; 8 min
Experimental: (§1) Antioxidant activity was measured using the 2,2-diphenyl-1-pieryhydrazyl (DPPH) radical scavenging assay. Different dilutions of TTF (or control drugs) were added to 1 mL of DPPH (3.9 mg/100 mL methanol) in test tubes wrapped in aluminum foil. Absorbance (A) was measured at 517 nm after 8 min incubation in the dark. The scavenging ability (%) of the samples was calculated as (Acontrol−Asample)/Acontrol×100).
as §1, with “achillolide A or quercetin” for “TTF (or control drugs)”
The DPPH scavenging ability of TTF, memantine and quercetin were compared for eight minutes. Results are shown in FIG. 7 and are the mean±SEM of two experiments performed in duplicates (n=4).
The DPPH scavenging ability of achillolide A and quercetin were tested for eight minutes. Values represent the mean±SEM (n=4 for each concentration). **p<0.01; ***p<0.001, compared to a mixture without achillolide A or quercetin.

Compound	inhibition of H2O2-induced phosphorylation of MEK1 (MEK1; astrocytes pretreated 2 h, total MEK1 not affected) [%]	IC50 [1] [µM]	inhibition of DPPH absorbance at 517 nm (maximal scavenging ability) [1] [%]	effect on H2O2-induced phosphorylation of MEK1 (MEK1)
COc1cc(-c2oc3cc(OC)c(OC)c(O)c3c(=O)c2O)ccc1O [TTF, 3,5,4′-trihydroxy-6,7,3′-trimethoxyflavone]	27	45	60	–
C=C1CCC2=C(CO)C(=O)O[C@H]2/C=C(\C)[C@H](OC(C)=O)CC1=O [achillolide A]	–	45	60	inhibitory effect
CC12CC3CC(C)(C1)CC(N)(C3)C2 [memantine, reference compound]	–	–	7	inhibitory effect
O=c1c(O)c(-c2ccc(O)c(O)c2)oc2cc(O)cc(O)c12 [quercetin, 3,3′,4′,5,7-Pentahydroxyflavone, reference compound]	–	–	90	–
